Laboratory results published in PMC6934184, “Selective DNA-PKcs inhibition extends the therapeutic index of localized radiotherapy and chemotherapy” (The Journal of Clinical Investigation, 2019).

Molecular target: T1, NUAK2 (Homo sapiens, UniProt Q9H093)
T1 construct: purchased Thermo Fisher Scientific (Life Technologies) SelectScreen
Assay: SelectScreen LanthaScreen
Format: binding
Settings: 1 µM
Description: The in vitro kinase selectivity of NU5455 was determined using the SelectScreen Broad Assay Panel (Thermo Fisher Scientific) involving activity and binding assays (Supplemental Table 1). […] Class IA PI3Ks were measured using the p85α subunit.
Kinase [ATP] % Assay Kinase [ATP] % Assay Kinase [ATP] % Assay Kinase [ATP] % Assay […]
NEK2 Km app 17.8 Z CSNK1G3 (CK1 gamma 3) Km app 4.2 Z NUAK2 n/a 1.0 L KIT T670E n/a -2.8 L […]
SGK (SGK1) Km app 8.5 Z MAP4K2 (GCK) Km app 2.7 Z TLK2 n/a -0.3 L STK38 (NDR) n/a -5.9 L
MERTK (cMER) Km app 8.3 Z CDK2/cyclin A Km app 2.7 Z TGFBR1 (ALK5) n/a -0.4 L MATK (HYL) Km app -6.3 Z
FYN Km app 8.3 Z EPHA1 Km app 2.7 Z CLK3 Km app -0.5 Z ABL1 E255K Km app -6.6 Z
TEC n/a 8.1 L CDK2/cyclin E1 n/a 2.7 L MAP3K14 (NIK) n/a -0.5 L STK17A (DRAK1) n/a -6.6 L
KIT V654A n/a 8.1 L TESK2 n/a 2.7 L AKT3 (PKB gamma) Km app -0.5 Z JAK2 JH1 JH2 Km app -6.7 Z
ROS1 Km app 8.0 Z SPHK1 Km app 2.7 A MAP3K9 (MLK1) Km app -0.5 Z PRKACB (PRKAC beta) n/a -6.8 L
FGFR3 K650E Km app 7.9 Z AMPK A2/B1/G1 Km app 2.6 Z IKBKB (IKK beta) Km app -0.6 Z PDGFRA (PDGFR alpha) Km app -6.8 Z
RAF1 (cRAF) Y340D Y341D 100 7.9 Z DYRK3 Km app 2.6 Z CAMK2A (CaMKII alpha) Km app -0.6 Z NEK9 Km app -7.2 Z
PI4KA (PI4K alpha) 10 7.8 A CSNK1D (CK1 delta) Km app 2.6 Z PRKCB1 (PKC beta I) Km app -0.7 Z PDK1 Km app -7.3 Z
HIPK2 Km app 7.8 Z ACVR2A n/a 2.5 L TTK n/a -0.7 L RPS6KB1 (p70S6K) Km app -7.8 Z […]

T1 sequence (Q9H093 whole entry): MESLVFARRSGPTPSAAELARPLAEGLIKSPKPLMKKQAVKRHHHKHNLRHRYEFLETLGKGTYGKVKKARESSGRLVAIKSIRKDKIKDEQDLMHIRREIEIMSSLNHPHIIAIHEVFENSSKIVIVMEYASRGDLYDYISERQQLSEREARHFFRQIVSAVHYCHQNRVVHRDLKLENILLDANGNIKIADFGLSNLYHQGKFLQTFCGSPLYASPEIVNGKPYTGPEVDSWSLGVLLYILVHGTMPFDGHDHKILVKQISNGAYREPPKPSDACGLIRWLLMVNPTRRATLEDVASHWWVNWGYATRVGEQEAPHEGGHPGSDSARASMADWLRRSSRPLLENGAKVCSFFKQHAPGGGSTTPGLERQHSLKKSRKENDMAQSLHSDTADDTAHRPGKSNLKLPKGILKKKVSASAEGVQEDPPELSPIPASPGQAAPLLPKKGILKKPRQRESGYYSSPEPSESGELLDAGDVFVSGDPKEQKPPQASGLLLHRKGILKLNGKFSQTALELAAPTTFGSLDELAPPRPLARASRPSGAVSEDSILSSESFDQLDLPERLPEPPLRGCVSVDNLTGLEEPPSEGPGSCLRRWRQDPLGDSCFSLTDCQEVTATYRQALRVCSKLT

CN(C(=O)CN1CCOCC1)c1ccc2sc3c(-c4cccc5c(=O)cc(N6CC7CCC(C6)O7)oc45)cccc3c2c1 [NU5455]
% displacement: 1.0%
